Results reported in paper PMC7503308, “A Novel Urease Inhibitor of Ruminal Microbiota Screened through Molecular Docking” (International Journal of Molecular Sciences, 2020).
Entries after “also recorded” stand apart in the source; their conditions may differ.

What was measured:
ruminal microbiota [1] = assay: Chemical degradation rate of compound in ruminal microbial fermentation (UPLC-HRMS); details: 100 μM
Procedure: The generation fermentation experiments were performed in anaerobic tubes containing 5 mL of an anaerobic medium, and in total, six generations of fermentation were performed. Altogether 54 tubes were prepared with nine tubes for each generation of fermentation. […] For the AHA treated group, the AHA working solution was prepared by diluting 3.76 mg AHA with 10 mL of methanol (5000 μM AHA). […] For the control group, the working solution contained only the solvent (methanol). All the working solutions were filtered by 0.22 μm of a membrane filter (Millipore Express PES Membrane, MILLEX GP). For each group, 100 µL of the working solution was added to each tube to mix with the anaerobic medium. […] Before the inoculation of each tube in each generation with fresh rumen fluid, 100 µL of the anaerobic urea solution was extracted from the anaerobic bottle using a syringe and filtered through 0.22 μm membrane filters, and then injected to the anaerobic tube to make the urea concentration at 16.65 mM in the tube. […] The NH4-N and Urea-N concentration was measured by the Berthelot alkaline phenol-hypochlorite method and the diacetyl monoxime method kit (Nanjing Jiancheng Co., Nanjing, China) following the manufacturer’s protocol. […]

ruminal microbiota [2] = assay: Ruminal microbial fermentation in vitro (six generations): urea and NH3-N; assay type: cell-based, rumen fluid of Chinese Holstein dairy cows; details: 100 μM compound, 24 h, p < 0.01
Procedure: Seven solutions were prepared for the anaerobic media as solution A (3 g/L K2HPO4), solution B (0.6 g/L CaCl2, 3 g/L K2HPO4, 6 g/L NaCl, 0.6 g/L MgSO4·7H2O), solution C (6 g/L K2HPO4), solution D (1.6 g/L CaCl2·2H2O, 6 g/L K2HPO4, 12 g/L NaCl, 2.5 g/L MgSO4·7H2O), trace element solution (300 mg/L H3BO3, 100 mg/L ZnSO4·7H2O, 30 mg/L MnCl2·4H2O, 20 mg/L CoCl2·6H2O, 30 mg/L Na2MoO4·2H2O, 10 mg/L Na2SeO3, 20 mg/L NiCl2, 10 mg/L CuCl2·2H2O, 150 mg/L FeCl2·4H2O), volatile fatty acid (VFA) mixed solution (17 mL acetic acid, 6 mL propionic acid, 4 mL butyric acid, 1 mL n-valeric acid, 1 mL isovaleric acid, and 1 mL isobutyric acid), and hemin solution, prepared by diluting 50 mg of Haemon in NaOH (1 N solution) and made up to 100 mL with distilled water. Each liter of anaerobic media contained 30 mL of autoclaved rumen fluid supernatant, 0.5 g of glucose, 0.5 g of soluble starch, 0.5 g of cellobiose, 0.5 g of maltose, 0.5 g of […], 0.5 g of tripticase, 0.5 g of yeast extract, 8 g of NaHCO3, 0.1 mL of trace elements solution, 15 mL solution A, 15 mL solution B, 0.5 g of cysteine hydrochloride, 10 mL of hemin solution, 3.1 mL of VFA mixed solution, and 1 mg resazurin. The anaerobic urea solution was prepared using an anaerobic glove box, by dissolving 2.5 g of urea in a 50 mL anaerobic diluent. This diluent consisted of 3.8 mL of salt solution C, 3.8 mL of salt solution D, 5 mL of 8% sodium Na2CO3, 1 mL of 0.1% resazurin, 0.5 g of cysteine hydrochloride dissolved in distilled water and made up to 1000 mL and distributed into 50 mL anaerobic bottles. All the anaerobic bottles were sterilized by autoclave. Prior to the inoculation, fresh frozen rumen fluid samples, pretreated as described previously, were removed from the freezer, thawed, homogenized, and used immediately. […] Chromatographic gradients were referenced to the paper.

In the case of `COc1ccc(-c2ccc(CCC(=O)O)n2NC(N)=O)cc1` [6238-0047, 3-[1-[(aminocarbonyl)amino]-5-(4-methoxyphenyl)-1H-pyrrol-2-yl] propanoic acid], the “24 h degradation rate” value (ruminal microbiota [1]; first-generation ruminal microbial culture) is reported as 3.32%, the “24 h degradation rate” value (ruminal microbiota [1]; sixth generation ruminal microbial culture) is reported as 16.00% and the “Amount of urea degradation vs control group” value (ruminal microbiota [2]; 16.65 mM urea) is reported as “significantly lowered the amount of urea degradation”. The “NH3-N concentration / production vs control group” value (ruminal microbiota [2]) was “significantly lower than the control group; also recorded: consistently lower than the control group”.
